From US20020054872A1, “Peptides for the treatment of systemic lupus erythematosus and methods of treating systemic lupus erythematosus” (priority 1997, published 2002)
Residues, ends and D or L forms follow the SMILES beside them.

Tests used:
[1] = system: C72 murine anti-DNA antibody; assay: Direct binding ELISA of C72 to laminin peptides; parameters: species or system mouse; conditions: for binding of C72 murine anti-DNA antibody to laminin peptides: FIG. 1, C72 conditioned medium in various dilutions; for C72 Binding: direct binding ELISA test after one (1) hour
Protocol: (§1) The C72 murine anti-DNA antibody has been derived from (NZB×NZW)F1 lupus mice by the hybridoma technique as described in Eilat D. et al J. Immunol. […] The monoclonal anti-DNA antibodies DIL6 and B3 were derived from lupus patients by hybridoma technique as described in Ehrenstein M. R. et al J. Clin. Invest. (1994) 93 1787-1799 and Ehrenstein M. R. et al Kidney Inter. (1995) 48 705-711.
(§2) Wells were coated with 10 μg/ml of the peptides, blocked with 1% BSA (bovine serum albumin) in PBS (pH 7,4), reacted with appropriately diluted serum or urine samples or monoclonal antibodies, incubated with anti-human or anti-mouse immunoglobulin enzyme conjugated to alkaline phosphatase and detected by addition of substrate (Sigma 100 Phosphatase Substrate Tablets) and color development using an Organon Teknika Microwell System spectrometer at wavelength of 405 nm.
The interaction of the C72 murine anti-DNA antibody with laminin peptides was analyzed by ELISA as described above. The C72 conditioned medium was diluted in PBS in various dilutions.
(§3) The peptides of the present invention were tested for their ability to bind directly with C72 murine anti-DNA antibodies and B3 human anti-DNA antibodies according to the method described hereinabove.

[2] = system: C72 murine anti-DNA antibody; assay: Competitive inhibition of C72 binding to 5200; parameters: species or system mouse; conditions: FIG. 2, incubation with inhibiting agent
Protocol: The binding of C72 to 5200 was tested before and after incubation with 5200, R38, R18, Heparin, DNA and DNase. […] The percent inhibition is the percent reduction of the O.D. after incubation with the inhibiting agent.

[3] = system: murine urinary immunoglobulins; assay: Binding of murine urinary immunoglobulins, direct binding ELISA; parameters: species or system mouse; conditions: MRL/lpr/lpr mice, pooled urine
Protocol: as §2
Thus, pooled urine from at least 5 mice (either MRL/lpr/lpr or control mice, e.g. BALB/c) was added to wells coated with R38′ (5200), R18 or DNA as described above and bound 5200 assayed by ELISA.
Each group is comprised of pooled urine.

[4] = system: MRL/lpr/lpr mice; assay: Effect on clinical course of murine SLE (survival, renal histology); format: in vivo, mouse; conditions: from 6 weeks old
Protocol: To test whether R38 peptides can affect the course of SLE we have tested their effect on MRL/lpr/lpr mice disease. 60 μg of 5200 (R38′ alone or in peptide combinations, 30 μg of each) in 0.1 ml PBS, was injected i.p. to 6 week old female MLR/lpr/lpr mice once a week for 16 week and the mice were evaluated for survival (FIG. 8), and for renal histology. 50 μg of 5100 (R38) or 5300 (human R38) in 0.1 ml PBS, was injected i.p. to 6 week old MRL/lpr/lpr mice three times a week and the mice were evaluated for survival (FIG. 9), and for renal histology. Control mice received 0.1 ml phosphate buffer solution. Each test and control group contained 12-15 mice.
The survival of MRL/lpr/lpr mice treated with […], 5200 or 5300 was compared to that of PBS treated mice. […] In FIGS. 8 and 9 the time in days shown on the x axis relates to the age of the mice.

[5] = system: human monoclonal anti-DNA antibody DIL 6; assay: Direct binding ELISA of DIL6 to laminin peptides; conditions: FIGS. 3 and 4
Protocol: as §1, §2
(§4) The human monoclonal anti-DNA antibodies DIL 6 and B3 were derived from lupus patients by the hybridoma technique. […] In FIGS. 3 and 4, the peptides are referred to as denoted above or as follows; AS30 is R27, AS19 is R35 AS35 is R26, AS17 is R28 and AS6 is R18.

[6] = system: B3 human anti-DNA antibody; assay: Direct binding ELISA of B3 to laminin peptides; conditions: FIGS. 3 and 4
Protocol: as §1, §2, §4, §3

[7] = system: anti-R38 antibodies in patients' plasma; assay: Immunoabsorption of plasma on R38 column, anti-R38 ELISA; format: binding, human
Protocol: (§5) The R38 peptide was dissolved in the coupling buffer (0.2M NaHCO3, 0.5M NaCl, pH 8.3) in a concentration of 1 mg/ml in 5 ml coupling buffer. A 5 ml N-hydroxysuccinimide (NHS)-activated Sepharose™ High Performance Column (Pharmacia 17-0717-01) is used. The isopropanol in the column was washed out from the column with 30 ml of cold (4° C.) 1 mM HCl and 5 ml of the peptide solution was then injected onto the column with a syringe (2.5 ml/minute). The column was sealed and stood for 30 minutes at room temperature. The column was then washed with 30 ml Buffer A (0.5 M ethanolamine, 0.5 M NaCl, pH 8.3) and 30 ml Buffer B (0.5 M acetate, 0.5 M NaCl, pH 4) consecutively three times, and then with neutral pH buffer (0.05 M Na2HP04 and 0.1% NaN3).
(§6) The column was washed with 15 ml PBS (phosphate buffered saline), followed by 15 ml elution buffer (0.1 M glycine HCl) and then 50 ml PBS. The C72 antibody or the patients' plasma samples were filtered through a 0.45 microm filter. The samples were applied onto the column by a fitted syringe at a rate of 2.5 ml/min. The column was then washed with 5 ml PBS and the flow-through was applied to the column again. The binding of the samples (original and flow-through) to R38 was tested by the anti-R38 ELISA test.
(§7) In the instant example, the mouse C72 and the SLE patients' plasma were applied to the R38 column. Their anti-R38 binding was evaluated by ELISA in the original samples and in the flow-through of the column.

[8] = system: C72 antibody; assay: Immunoabsorption of C72 on R38 column, anti-R38 ELISA; format: binding, mouse
Protocol: as §5, §6, §7

[9] = molecular target: C72 murine anti-DNA antibody; assay: competitive inhibition ELISA: C72 preincubated with peptide, binding to coated 5100 (R38)

KATPMLKMRTSFHGCIK [Peptide R37, residues 2615-2631 of mouse laminin α chain]
binding of C72 murine anti-DNA antibody to laminin peptides [1]: binding

CC(C)C[C@H](NC(=O)[C@H](CC(=O)O)NC(=O)[C@H](CC(C)C)NC(=O)[C@H](CCCNC(=N)N)NC(=O)[C@@H](NC(=O)[C@H](CCCCN)NC(=O)[C@H](Cc1ccc(O)cc1)NC(=O)CNC(=O)[C@H](CCC(=O)O)NC(=O)[C@@H](N)CCCCN)C(C)C)C(=O)N[C@@H](CC(N)=O)C(=O)N[C@H](C(=O)N[C@H](C(=O)N[C@@H](CC(C)C)C(=O)N[C@@H](CCC(=O)O)C(=O)N[C@@H](Cc1ccccc1)C(=O)N[C@@H](CCCNC(=N)N)C(=O)N[C@H](C(=O)N[C@H](C(=O)N[C@@H](CO)C(=O)N[C@@H](CCCCN)C(=O)O)[C@@H](C)O)[C@@H](C)O)[C@@H](C)O)[C@@H](C)O (stereo in doubt) [Peptide 5200]
inhibition of the binding of C72 to 5200 [2]: inhibition
Binding of murine urinary immunoglobulins to antigen [3]: 0.26 (*) O.D. at 405 nm
survival ([4]; 60 μg i.p. once a week for 16 week, FIG. 8): significantly higher than that of control mice
binding of DIL 6 [5]: found to bind
binding of B3 [6]: found to bind
binding of C72 murine anti-DNA antibody to laminin peptides [1]: binding

KQNCLSSRASFRGCVRNLRLSR [Peptide R30, residues 3011-3032 of mouse laminin α chain]
binding of C72 murine anti-DNA antibody to laminin peptides [1]: binding

CC[C@H](C)[C@H](NC(=O)[C@H](CC(N)=O)NC(=O)[C@H](CC(C)C)NC(=O)[C@H](CC(=O)O)NC(=O)[C@H](CC(C)C)NC(=O)[C@H](CCCNC(=N)N)NC(=O)[C@@H](NC(=O)[C@H](CCCCN)NC(=O)[C@H](Cc1ccc(O)cc1)NC(=O)CNC(=O)[C@H](CCC(=O)O)NC(=O)[C@@H](N)CCCCN)C(C)C)C(=O)N[C@H](C(=O)N[C@@H](CC(C)C)C(=O)N[C@@H](C)C(=O)N[C@@H](Cc1ccccc1)C(=O)N[C@@H](CCCNC(=N)N)C(=O)N[C@H](C(=O)N[C@H](C(=O)N[C@@H](CO)C(=O)N[C@@H](CCCCN)C(=O)O)[C@@H](C)O)[C@@H](C)O)[C@@H](C)O [Peptide 5110] (H-KEGYKVRLDLNITLAFRTTSK-OH; N-terminus and C-terminus assumed)
C72 Binding [1]: 2.5 O.D.

DNA [reference compound]
inhibition of the binding of C72 to 5200 [2]: inhibition

CC[C@H](C)[C@H](NC(=O)[C@H](CC(N)=O)NC(=O)[C@H](CC(C)C)NC(=O)[C@H](CC(=O)O)NC(=O)[C@H](CC(C)C)NC(=O)[C@H](CCCNC(=N)N)NC(=O)[C@@H](NC(=O)[C@H](CCCCN)NC(=O)[C@H](Cc1ccc(O)cc1)NC(=O)CNC(=O)[C@H](CCC(=O)O)NC(=O)[C@@H](N)CCCCN)C(C)C)C(=O)N[C@H](C(=O)N[C@@H](CC(C)C)C(=O)N[C@@H](CCC(=O)O)C(=O)N[C@@H](Cc1ccccc1)C(=O)N[C@@H](CCCNC(=N)N)C(=O)N[C@H](C(=O)N[C@H](C(=O)N[C@@H](CO)C(=O)N[C@@H](CCCCN)C(=O)O)[C@@H](C)O)[C@@H](C)O)[C@@H](C)O [Peptide 5100] (H-KEGYKVRLDLNITLEFRTTSK-OH; N-terminus and C-terminus assumed)
inhibition of the binding of C72 to 5200 [2]: inhibition
survival ([4]; 50 μg i.p. three times a week, FIG. 9): significantly higher than that of control mice
Binding to R38 (O.D.) ([7]; Healthy donor's plasma, after immunoabsorption): 0.06 O.D.
Binding to R38 (O.D.) ([7]; Healthy donor's plasma, original sample): 0.26 O.D.
Binding to R38 (O.D.) ([7]; SLE patient 1 plasma, after immunoabsorption): 0.6 O.D.
Binding to R38 (O.D.) ([7]; SLE patient 1 plasma, original sample): 1.5 O.D.
Binding to R38 (O.D.) ([7]; SLE patient 2 plasma, after immunoabsorption): 1.6 O.D.
Binding to R38 (O.D.) ([7]; SLE patient 2 plasma, original sample): 2.3 O.D.
antibodies removed by affinity absorption on the column ([7]; human SLE patients' plasma): 30%-60%
Binding to R38 (O.D.) ([8]; C72, after immunoabsorption on R38 column): 0.02 O.D.
Binding to R38 (O.D.) ([8]; C72, original sample): 1.96 O.D.
anti-R38 activity removed by affinity absorption on the column ([8]; mouse monoclonal C72): 99%

DNase [reference compound]
inhibition of the binding of C72 to 5200 [2]: not by a control peptide or treatment with DNase

heparin [reference compound]
inhibition of the binding of C72 to 5200 [2]: inhibition

CC[C@H](C)[C@H](NC(=O)[C@H](CC(N)=O)NC(=O)[C@H](CC(C)C)NC(=O)[C@H](CC(=O)O)NC(=O)[C@H](CC(C)C)NC(=O)[C@H](C)NC(=O)[C@@H](NC(=O)[C@H](C)NC(=O)[C@H](Cc1ccc(O)cc1)NC(=O)CNC(=O)[C@H](CCC(=O)O)NC(=O)[C@H](C)N)C(C)C)C(=O)N[C@H](C(=O)N[C@@H](CC(C)C)C(=O)N[C@@H](CCC(=O)O)C(=O)N[C@@H](Cc1ccccc1)C(=O)N[C@@H](C)C(=O)N[C@H](C(=O)N[C@H](C(=O)N[C@@H](CO)C(=O)N[C@@H](C)C(=O)O)[C@@H](C)O)[C@@H](C)O)[C@@H](C)O [Peptide 5104] (H-AEGYAVALDLNITLEFATTSA-OH; N-terminus and C-terminus assumed)
C72 Binding [1]: 0.08 O.D.

VRLDLNITLEFR [5102 peptide, Res. 6-17 of 5100]
IC50 [9]: 30 µg/mL

KEGYKVRLDLNITLEFRTTSK [R38 peptide (5100), mouse laminin alpha chain residues 2890-2910]
IC50 [9]: 10 µg/mL

KEGYKVRLDLNITLEF [5101 peptide, Res. 1-16 of 5100]
IC50 [9]: 5 µg/mL

KEGYKVRLDLNITLEFETTSK [5107 peptide, charge subst. to neg. at 5100 a.a. 17]
IC50 [9]: 85 µg/mL

KEGYKVRLDLNITLAFRTTSK [5110 peptide, Ala subst. of 5100 a.a. 15]
IC50 [9]: 0.7 µg/mL

KAGYKVRLALNITLAFRTTSK [5108 peptide, Ala subst. of 5100 at all negative a.a.]
IC50 [9]: 2 µg/mL

KEGYKVRLALNITLEFRTTSK [5109 peptide, Ala subst. of 5100 a.a. 9]
IC50 [9]: 0.7 µg/mL

KEGYKVELDLNITLEFRTTSK [5106 peptide, charge subst. to neg. at 5100 a.a. 7]
IC50 [9]: 2.5 µg/mL

KEGYKVRLDLNTTLEFRTTSK [5200 peptide, mouse R38 analog]
IC50 [9]: 10 µg/mL
